The text below walks through data of patent US12391723B2, “Steroids and methods of manufacture” (Trustees of Dartmouth College, priority 2017, dated 2025).

Assay [1] concerns three human cancer cell lines. Put plainly: Growth inhibition by compound 39, total DNA content after 7 days growth. Format: cell-based. The following applies: 168 h, range across three human cancer cell lines, read-out: 50% inhibitory concentrations. The method, then: (§1) The following day, ent-steroidal compound 39 was added in 2-fold dilutions (8 wells/concentration). After 7 days growth, cells were lysed and analyzed for total DNA content as described in Montano et al. (See, Montano, R., et al., Mol. Cancer Therap., 11:427-438 [2012]).

The subject of assay [2] is AsPC-1. Put plainly: Growth inhibition by Compound 39 (DNA fluorescence, FIG. 3D). Type of assay: cell-based. The following applies: Homo sapiens, ASPC1, read-out: calculated GI50 against AsPC-1. The procedure:
as §1
(§2) Compound 39 was also investigated for growth inhibition in three cancer cell lines: MDA-MB-231, AsPC-1, and U2OS (human osteosarcoma).

For assay [3], the system named is MDA-MB-231. Described as above. Format: cell-based. The following applies: Homo sapiens, read-out: calculated GI50 against MDA-MB-231. The method, then:
as §1, §2

Assay [4] relates to U2OS (human osteosarcoma). Described as above. Type of assay: cell-based. The following applies: read-out: calculated GI50 against U2OS. The procedure: as §1, §2
Assay [5] has as its system AsPC-1. In words: In vitro growth inhibition (Hoechst 33258 DNA fluorescence, 6 days). Format: cell-based. The following applies: Homo sapiens, ASPC1, 144 h, concentration that inhibited growth by 50%, 2-fold dilutions from 40 μM. The method, then:
(§3) Fifteen (15) exemplary compounds were investigated for growth inhibition in two cancer cell lines (one for breast and one for pancreatic cancer: MDA-MB-231 and AsPC-1, respectively).
(§4) Procedure: Inhibition of cell growth was accessed by plating 1000 cells per well of a 96-well plate. The following day, compounds were added as 2-fold dilutions from 40 μM (8 wells/concentration). After 6 days, cells were washed, lysed and stained with Hoechst 33258. Fluorescence was read on a microplate spectrofluorometer. Results are expressed as the concentration that inhibited growth by 50% (GI50). See Rao, J., Otto, W. R. Fluorometric DNA assay for cell growth estimation. Anal Biochem. 1992; 207:186-192.

Assay [6] concerns MDA-MB-231. The description is as above. Type of assay: cell-based. The following applies: Homo sapiens, MDA-MB-231, 144 h, concentration that inhibited growth by 50%, 2-fold dilutions from 40 μM. The procedure: as §3, §4
The target in another assay is ER-β (Homo sapiens, UniProt Q92731). In words: ER-β agonist activity. Format: cell-based.
Sequence of ER-β (Q92731 whole entry, species assumed): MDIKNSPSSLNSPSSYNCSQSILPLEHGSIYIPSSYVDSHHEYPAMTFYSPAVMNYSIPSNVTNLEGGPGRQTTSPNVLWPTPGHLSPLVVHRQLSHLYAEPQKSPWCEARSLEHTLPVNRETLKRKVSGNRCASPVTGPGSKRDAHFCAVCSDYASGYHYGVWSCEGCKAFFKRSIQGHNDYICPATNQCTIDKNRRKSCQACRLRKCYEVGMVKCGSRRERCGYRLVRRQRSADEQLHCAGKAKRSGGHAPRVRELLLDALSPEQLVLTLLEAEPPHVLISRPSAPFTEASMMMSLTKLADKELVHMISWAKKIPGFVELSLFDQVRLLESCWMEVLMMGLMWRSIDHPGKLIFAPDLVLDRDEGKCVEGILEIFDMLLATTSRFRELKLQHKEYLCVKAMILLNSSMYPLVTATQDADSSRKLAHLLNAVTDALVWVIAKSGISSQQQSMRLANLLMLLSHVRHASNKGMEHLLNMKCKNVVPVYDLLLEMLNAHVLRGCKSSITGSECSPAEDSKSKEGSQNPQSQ
The target in a further assay is T1, ER-α (Homo sapiens, UniProt P03372).
T1 sequence (P03372 1-595): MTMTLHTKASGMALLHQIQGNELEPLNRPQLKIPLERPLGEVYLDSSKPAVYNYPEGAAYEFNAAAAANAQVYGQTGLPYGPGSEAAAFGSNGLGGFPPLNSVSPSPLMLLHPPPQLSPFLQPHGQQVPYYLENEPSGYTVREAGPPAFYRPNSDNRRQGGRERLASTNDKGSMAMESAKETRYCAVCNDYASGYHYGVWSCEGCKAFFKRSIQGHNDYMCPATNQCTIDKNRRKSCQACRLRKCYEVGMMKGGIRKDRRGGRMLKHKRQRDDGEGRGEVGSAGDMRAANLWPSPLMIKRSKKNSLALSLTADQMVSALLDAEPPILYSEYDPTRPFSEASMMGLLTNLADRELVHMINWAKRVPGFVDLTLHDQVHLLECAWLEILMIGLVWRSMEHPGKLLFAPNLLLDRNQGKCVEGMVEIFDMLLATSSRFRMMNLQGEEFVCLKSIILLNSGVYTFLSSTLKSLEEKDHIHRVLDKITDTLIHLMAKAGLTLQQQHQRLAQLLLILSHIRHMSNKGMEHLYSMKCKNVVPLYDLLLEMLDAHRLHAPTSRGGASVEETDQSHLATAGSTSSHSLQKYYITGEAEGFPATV
Put plainly: ER-α agonist activity. Type of assay: cell-based.

For a further assay, the target named is CLK-4 (Homo sapiens, UniProt Q9HAZ1). Put plainly: Affinity to CLK-4. Format: binding. The following applies: member of the family of CDC-2-like kinases.
Sequence of CLK-4 (Q9HAZ1 whole entry, species assumed): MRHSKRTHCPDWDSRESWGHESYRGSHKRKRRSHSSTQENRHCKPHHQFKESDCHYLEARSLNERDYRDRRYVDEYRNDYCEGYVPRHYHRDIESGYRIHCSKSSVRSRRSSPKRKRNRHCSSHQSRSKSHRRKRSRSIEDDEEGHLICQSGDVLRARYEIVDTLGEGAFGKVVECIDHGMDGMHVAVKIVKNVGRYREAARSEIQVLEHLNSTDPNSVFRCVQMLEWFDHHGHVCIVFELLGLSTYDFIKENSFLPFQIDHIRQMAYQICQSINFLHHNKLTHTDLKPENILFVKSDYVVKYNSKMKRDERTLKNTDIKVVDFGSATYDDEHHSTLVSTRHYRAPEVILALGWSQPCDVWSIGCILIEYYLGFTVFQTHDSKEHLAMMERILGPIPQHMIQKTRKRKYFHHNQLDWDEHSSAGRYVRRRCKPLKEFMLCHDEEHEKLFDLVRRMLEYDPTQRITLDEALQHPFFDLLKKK
The subject of assay [7] is MDA-MB-231, AsPC-1, and A549. Put plainly: Growth of several cancer cell lines incubated with Compound 205b. Type of assay: cell-based, human. The following applies: range across MDA-MB-231, AsPC-1, and A549. The method, then: as §4
(§5) Compound 205b has been identified as a uniquely potent and selective agonist of ER-β, having an EC50=20 nM for ER-β and an EC50 over 3000 nM for ER-α.

The test system of assay [8] is cancer cell lines (MDA-MB-231, AsPC-1, and A549). Put plainly: Cell cycle analysis and microscopic analysis of cancer cells treated with Compound 205b. Type of assay: cell-based, human. The following applies: at 0.8-5 μM. The method, then:
as §5

Several values for one entry are separate records, joined by “and”; a condition that tells them apart may be missing. Identical values can stand only once.

Regarding `C[C@@]12CC=C3C(=CC(=O)c4ccccc43)[C@H]1C[C@H](O)C2` [Compound 39], the IC50 in [1] was 1.2 µM to 4 µM and 0.32 µg/mL to 1.07 µg/mL. Besides, the GI50 in the assay on AsPC-1 [2] is around 4 µM; in the assay on MDA-MB-231 [3], 0.32 µg/mL and 1.2 µM; in [4], around 4 µM.

Regarding `COc1ccc2c(Br)cc3c(c2c1)CC[C@]1(C)C[C@H](O)C[C@@H]31` [Compound 201a], the GI50 in the assay with AsPC-1 [5] and with MDA-MB-231 [6] was 15 µM each time.

`COc1ccc2ccc3c(c2c1)CC[C@]1(C)C[C@H](O)C[C@@H]31` [Compound 201b]: the GI50 with AsPC-1 [5] stood at 30 µM; in the assay on MDA-MB-231 [6] it was 25 µM.

On to `COc1ccc2c(C#Cc3ccccc3)cc3c(c2c1)CC[C@]1(C)C[C@H](O)C[C@@H]31` [Compound 201c], for which the values for the GI50 with AsPC-1 [5] and in the assay on MDA-MB-231 [6] were 30 µM and 20 µM, respectively.

`C[C@]12CCc3c(cc(Br)c4ccc(O)cc34)[C@@H]1C[C@@H](O)C2` [Compound 205a]: the GI50 in the assay with AsPC-1 [5] is 10 µM; in the assay with MDA-MB-231 [6], 17 µM.

Turning to `C[C@]12CCc3c(ccc4ccc(O)cc34)[C@@H]1C[C@@H](O)C2` [Compound 205b], the GI50 in the assay with AsPC-1 [5] is 2 µM; with MDA-MB-231 [6], 0.8 µM. Also, the EC50 is 0.02 µM on ER-β and above 3 µM at ER-α. Besides, on CLK-4, the Kd is around 0.35 µM. Besides, the “concentration at which growth was inhibited” value in [7] fell in the range of 0.8 to 5 µM. The “mitotic arrest by microscopic analysis” value in assay [8] is listed as “cells arrested in mitosis at prometaphase”. Also, in [8] (parallel experiments), the cell cycle arrest result is given as “arrested cells in G2/M phase of the cell cycle”.

As to `C[C@]12CCc3c(cc(C#Cc4ccccc4)c4ccc(O)cc34)[C@@H]1C[C@@H](O)C2` [Compound 205c], the GI50 was found to be 9 µM with AsPC-1 [5] and 8 µM in the assay on MDA-MB-231 [6].

Turning to `COc1ccc2c(Br)cc3c(c2c1)CC[C@]1(C)C[C@@H](O)C[C@@H]31` [Compound 206a], the concentration for 50% growth inhibition (GI50) with AsPC-1 [5] and with MDA-MB-231 [6] was 20 µM each time.

On to `COc1ccc2ccc3c(c2c1)CC[C@]1(C)C[C@@H](O)C[C@@H]31` [Compound 206b], for which the GI50 in the assay with AsPC-1 [5] is 40 µM; in the assay on MDA-MB-231 [6] it was 30 µM.

Turning to `COc1ccc2c(C#Cc3ccccc3)cc3c(c2c1)CC[C@]1(C)C[C@@H](O)C[C@@H]31` [Compound 206c], the GI50 with AsPC-1 [5] and in the assay on MDA-MB-231 [6] was 15 µM each time.

Turning to `C[C@]12CCc3c(cc(Br)c4ccc(O)cc34)[C@@H]1C[C@H](O)C2` [Compound 207a], the GI50 in the assay with AsPC-1 [5] and in the assay on MDA-MB-231 [6] was 30 µM throughout.

As to `C[C@]12CCc3c(ccc4ccc(O)cc34)[C@@H]1C[C@H](O)C2` [Compound 207b], the 50% growth inhibitory concentration (GI50) with AsPC-1 [5] was found to be 40 µM; in the assay with MDA-MB-231 [6] it was 20 µM.

As to `C[C@]12CCc3c(cc(C#Cc4ccccc4)c4ccc(O)cc34)[C@@H]1C[C@H](O)C2` [Compound 207c], the results for the GI50 in the assay with AsPC-1 [5] and with MDA-MB-231 [6] were 15 µM and 5 µM, respectively.

With `COc1ccc2c(F)cc3c(c2c1)CC[C@]1(C)C[C@H](O)C[C@@H]31` [Compound 208a], the GI50 with AsPC-1 [5] was 30 µM; in the assay with MDA-MB-231 [6], 25 µM.

For `C[C@]12CCc3c(cc(F)c4ccc(O)cc34)[C@@H]1C[C@@H](O)C2` [Compound 208b], the 50% growth inhibitory concentration (GI50) is 8 µM in the assay with AsPC-1 [5] and 4 µM with MDA-MB-231 [6].

For `COc1ccc2c(F)cc3c(c2c1)CC[C@]1(C)C[C@@H](O)C[C@@H]31` [Compound 208c], the GI50 in the assay with AsPC-1 [5] was 25 µM; in the assay on MDA-MB-231 [6] it was 5 µM.
